In BindingDB's records for patent US10849881 (Hoffmann-La Roche, 2020) one finds IC50 data, which are given here for 1 compound.

For this experiment, the target named is Autotaxin (Homo sapiens, UniProt Q13822). The experiment in a line: Enzyme Inhibition Assay. How it is done:
ATX inhibition was measured by a fluorescence quenching assay using a specifically labeled substrate analogue (MR121 substrate). To obtain this MR121 substrate, BOC and TBS protected 6-amino-hexanoic acid (R)-3-({2-[3-(2-{2-[2-(2-amino-ethoxy)-ethoxy]-ethoxy}-ethoxy)-propionylamino]-ethoxy}-hydroxy-phosphoryloxy)-2-hydroxy-propyl ester (Ferguson et al., Org Lett 2006, 8 (10), 2023) was labeled with MR121 fluorophore (CAS 185308-24-1, 1-(3-carboxypropyl)-11-ethyl-1,2,3,4,8,9,10,11-octahydro-dipyrido[3,2-b:2′,3′-i]phenoxazin-13-ium) on the free amine of the ethanolamine side and then, after deprotection, subsequently with tryptophan on the side of the aminohexanoic acid.Assay working solutions were made as follows:Assay buffer (50 mM Tris-HCl, 140 mM NaCl, 5 mM KCl, 1 mM CaCl2, 1 mM MgCl2, 0.01% Triton-X-100, pH 8.0;ATX solution: ATX (human His-tagged) stock solution (1.08 mg/mL in 20 mM bicine, pH 8.5, 0.15 M NaCl, 10% glycerol, 0.3% CHAPS, 0.02% NaN3), diluted to 1.4-2.5× final concentration in assay buffer;MR121 substrate solution: MR121 substrate stock solution (800 μM MR121 substrate in DMSO), diluted to 2-5× final concentration in assay buffer.

Usually IC50 stands for the concentration needed to halve the response being measured. `O=C(c1ccc2cc(Br)ccc2c1)N1C[C@@H]2[C@H](C1)[C@H]1CN(C(=O)c3ccc4[nH]nnc4c3)C[C@@H]21` [US10849881, Example 1.004] returned a half-maximal inhibitory concentration (IC50) of 17 nM.
